Patent publication US20240390434A1, “PROBIOTIC ENHANCERS AND USES THEREOF” (Blis Technologies Limited, priority 2021, published 2024)

How the values were obtained:
Type in all cases: cell-based
[1] = system: S. aureus A222; assay: Deferred antagonism assay, producer S. salivarius M18; conditions: Staphylococcus aureus, A222, M18, read-out: Size of zone inhibition normalised to control, S. aureus A222
Experimental: (§1) 1-2 producer strain colonies were transferred from a stock plate into 900 μL of suspension solution using a fresh cotton swab. Following this, suspensions were vortexed, and a sample was inoculated onto solid culture media using a fresh cotton swab. The inoculation was a streak that runs diametrically across the agar plate in a 1.5 cm wide strip. The plate was then incubated. Following incubation all visible colonies were removed by swabbing them from the agar surface. The plates were then treated with chloroform by dispensing 2 ml of chloroform onto 4 cm×4 cm piece of cloth and sealing the inverted agar plate on top for 30 minutes. The plates were then air dried for 30 minutes following chloroforming. 1-2 indicator strain colonies were then transferred from a stock plate into complementary suspension solution. The suspensions were then vortexed, and a sample was inoculated onto the same agar surface. These samples were streaked in a perpendicular direction to the initial producer streak.
(§2) Each indicator streak was prepared with fresh a suspension containing cells from a corresponding stock plate containing the indicator strain of interest. Indicator strains suspension samples were transferred using a fresh cotton swab. Results were measured by qualitatively reviewing the subsequent (if any) sizes of the zones of inhibition (ZOI) of indicator strain colony growth. A positive result is when there is a distinctive reduction or complete inhibition of indicator colony growth on the culture medium.
(§3) CABCa agar plates containing various concentrations of saccharide were prepared according to the methods described in Method 1. Producer strains were transferred from stock agar plates into 900 μL THB using a fresh cotton swab. A plastic spread plater was cut to approximately 1.2 cm width and then dipped into ethanol and left to air dry to ensure sterility. A 100 μL sample of the producer strain suspension was then dispensed onto the agar surface in a straight line running diametrically across the agar surface in (approximately) 20 μL spots. The spots were spaced approximately 1.5 cm apart from each other. The plastic spreader was then used to evenly distribute the spots across the agar surface in a 1.5 cm wide strip. This step was taken to ensure an even producer streak was inoculated onto the agar surface and provided an approximate measure of the initial inoculum concentration. Separate plastic spreaders were used for samples containing different producer strains. The samples were left to soak into the agar surface until there was no visible liquid remaining on the agar surface (approximately 20 minutes). Following producer streak preparations, the deferred antagonism assay protocol was followed as per Method 2. Results were recorded by measuring the size of the zone of inhibition (ZOI) in mm.
(§4) A dose response assay was carried out according to method 3 above, except a 1.2 cm streak was used. For the individual saccharide testing the pH of the producer streak was adjusted after the growth of producer to change the acidic conditions.
(§5) A deferred antagonism assay was conducted using K12 or M18 raw ingredient suspended in Todd Hewitt broth (THB). This was spread as a 1.2 cm streak containing approximately 1-2×10^6 cfu down the middle of a CABCa control or CABCa galactose supplemented test plate. After 18 hrs growth at 37° C. with 5% CO2, bacterial growth was removed, and the pH of the agar in the initial streak was measured and adjusted to a pH of 6.5-7.5 using 0.5M sodium carbonate pH11 before sterilizing the agar surface using chloroform vapor. Bacterial test strains were suspended in i-THB before being swabbed across the plates perpendicular to the initial streak. Plates were incubated for a further 18 hrs incubation at 37° C. with 5% CO2 before measuring (mm) any zones of inhibition for each test strain, […]

[2] = system: S. pneumoniae D39; assay: Deferred antagonism assay, producer S. salivarius K12; conditions: Streptococcus pneumoniae, D39, K12, read-out: Size of zone inhibition normalised to control, S. pneumoniae D39
Experimental: as §1, §2, §3, §4, §5

[3] = system: S. constellatus T29; assay: as above; conditions: Streptococcus constellatus, T29, K12, read-out: Size of zone inhibition normalised to control, S. constellatus T29
Experimental: as §1, §2, §3, §4, §5

[4] = system: S. pyogenes 71-698; assay: as above; conditions: Streptococcus pyogenes, 71698, K12, read-out: Size of zone inhibition normalised to control, S. pyogenes 71-698
Experimental: as §1, §2, §3, §4, §5

[5] = system: S. saprophyticus ATCC 15305; assay: as above; conditions: Staphylococcus saprophyticus, ATCC15305, K12, read-out: Size of zone inhibition normalised to control, S. saprophyticus ATCC 15305
Experimental: as §1, §2, §3, §4, §5

[6] = system: S. mutans OMZ175; assay: as above; conditions: Streptococcus mutans, OMZ175, K12, read-out: Size of zone inhibition normalised to control, S. mutans OMZ175
Experimental: as §1, §2, §3, §4, §5

[7] = system: S. aureus A222; assay: as above; conditions: K12
Experimental: as §1, §2, §3, §4, §5

## O=C[C@H](O)[C@@H](O)[C@@H](O)[C@H](O)CO [Galactose, D-galactose]
[1]; Galactose 0.5% w/w
  zone of inhibition at 0.5 % strength: 10 mm
[1]; Galactose 1.25% w/w
  zone of inhibition at 1.25 % strength: 6 mm
[1]; Galactose 1.7% w/w
  zone of inhibition at 1.7 % strength: 0 mm
[1]; Galactose 2.5% w/w
  zone of inhibition at 2.5 % strength: 0 mm
[1]; Galactose 3.3% w/w
  zone of inhibition at 3.3 % strength: 6 mm
[1]; Galactose 5% w/w
  zone of inhibition at 5 % strength: 0 mm
[2]; Galactose 0.5% w/w
  zone of inhibition at 0.5 % strength: 8 mm
[2]; Galactose 1.25% w/w
  zone of inhibition at 1.25 % strength: 3 mm
[2]; Galactose 1.7% w/w
  zone of inhibition at 1.7 % strength: 2 mm
[2]; Galactose 2.5% w/w
  zone of inhibition at 2.5 % strength: 6 mm
[2]; Galactose 3.3% w/w
  zone of inhibition at 3.3 % strength: 0 mm
[2]; Galactose 5% w/w
  zone of inhibition at 5 % strength: 0 mm
[3]; Galactose 0.5% w/w
  zone of inhibition at 0.5 % strength: 14 mm
[3]; Galactose 1.25% w/w
  zone of inhibition at 1.25 % strength: 15 mm
[3]; Galactose 1.7% w/w
  zone of inhibition at 1.7 % strength: 12 mm
[3]; Galactose 2.5% w/w
  zone of inhibition at 2.5 % strength: 13 mm
[3]; Galactose 3.3% w/w
  zone of inhibition at 3.3 % strength: 10 mm
[3]; Galactose 5% w/w
  zone of inhibition at 5 % strength: 0 mm
[4]; Galactose 0.5% w/w
  zone of inhibition at 0.5 % strength: 4.5 mm
[4]; Galactose 1.25% w/w
  zone of inhibition at 1.25 % strength: 3.5 mm
[4]; Galactose 1.7% w/w
  zone of inhibition at 1.7 % strength: 3.5 mm
[4]; Galactose 2.5% w/w
  zone of inhibition at 2.5 % strength: 5.5 mm
[4]; Galactose 3.3% w/w
  zone of inhibition at 3.3 % strength: 1.5 mm
[4]; Galactose 5% w/w
  zone of inhibition at 5 % strength: 0 mm
[5]; Galactose 0.5% w/w
  zone of inhibition at 0.5 % strength: 0 mm
[5]; Galactose 1.25% w/w
  zone of inhibition at 1.25 % strength: 0 mm
[5]; Galactose 1.7% w/w
  zone of inhibition at 1.7 % strength: 0 mm
[5]; Galactose 2.5% w/w
  zone of inhibition at 2.5 % strength: 0 mm
[5]; Galactose 3.3% w/w
  zone of inhibition at 3.3 % strength: 0 mm
[5]; Galactose 5% w/w
  zone of inhibition at 5 % strength: 0 mm
[6]; Galactose 0.5% w/w
  zone of inhibition at 0.5 % strength: 10 mm
[6]; Galactose 1.25% w/w
  zone of inhibition at 1.25 % strength: 10 mm
[6]; Galactose 1.7% w/w
  zone of inhibition at 1.7 % strength: 0 mm
[6]; Galactose 2.5% w/w
  zone of inhibition at 2.5 % strength: 0 mm
[6]; Galactose 3.3% w/w
  zone of inhibition at 3.3 % strength: 0 mm
[6]; Galactose 5% w/w
  zone of inhibition at 5 % strength: 0 mm
[7]; saccharide range 0.83%-3.3% w/v
  Inhibitory activity of S. salivarius K12 in presence of saccharides, S. aureus A222: ✓
[7]; Staphylococcus aureus, A222, Galactose 0.5% w/w, read-out: Size of zone inhibition normalised to control, S. aureus A222
  zone of inhibition at 0.5 % strength: 12 mm
[7]; Staphylococcus aureus, A222, Galactose 1.25% w/w, read-out: Size of zone inhibition normalised to control, S. aureus A222
  zone of inhibition at 1.25 % strength: 8 mm
[7]; Staphylococcus aureus, A222, Galactose 1.7% w/w, read-out: Size of zone inhibition normalised to control, S. aureus A222
  zone of inhibition at 1.7 % strength: 9 mm
[7]; Staphylococcus aureus, A222, Galactose 2.5% w/w, read-out: Size of zone inhibition normalised to control, S. aureus A222
  zone of inhibition at 2.5 % strength: 6 mm
[7]; Staphylococcus aureus, A222, Galactose 3.3% w/w, read-out: Size of zone inhibition normalised to control, S. aureus A222
  zone of inhibition at 3.3 % strength: 0 mm
[7]; Staphylococcus aureus, A222, Galactose 5% w/w, read-out: Size of zone inhibition normalised to control, S. aureus A222
  zone of inhibition at 5 % strength: 0 mm
